The values that follow come from publication PMC9089800 (RSC Advances, 2018).

Bounds are passed on as bounds.

For this assay, the system named is MCF7. The assay is described as follows: MTT growth inhibition / cytotoxicity assay, MCF7. It counts as cell-based, human. To be noted: Homo sapiens, MCF7, 48 h, read-out: IC50 in μM MCF7, MTT, 48 h, 0–100 μM.
Take `C=C1[C@@H]2[C@H]3OC(=O)[C@@H](CN4CCCCC4)[C@@H]3CCC(=C)[C@@H]2C[C@@H]1O` [Compound 20, (3R,3aS,6aR,8S,9aR,9bS)-8-Hydroxy-6,9-dimethylene-3-(piperidin-1-ylmethyl)decahydroazuleno[4,5-b]furan-2(3H)-one]: the IC50 is over 100 µM.

Take `C=C1[C@@H]2[C@H]3OC(=O)/C(=C/c4ccc(C)c([N+](=O)[O-])c4)[C@@H]3CCC(=C)[C@@H]2C[C@@H]1OC(C)=O` [Compound 27, (3aS,6aR,8S,9aR,9bS)-3-((E)-4-Methyl-3-nitrobenzylidene)-6,9-dimethylene-2-oxododecahydroazuleno[4,5-b]furan-8-yl acetate]: the IC50 was over 100 µM. As for `C=C1[C@@H]2[C@H]3OC(=O)[C@@H](CN[C@H](C)c4ccccc4)[C@@H]3CCC(=C)[C@@H]2C[C@@H]1O` [Compound 6, (3R,3aS,6aR,8S,9aR,9bS)-8-Hydroxy-6,9-dimethylene-3-((((R)-1-phenylethyl)amino)methyl)decahydroazuleno[4,5-b]furan-2(3H)-one], the IC50 is over 100 µM. For the molecule `C=C1[C@@H]2[C@H]3OC(=O)/C(=C/c4ccc(C)cc4[N+](=O)[O-])[C@@H]3CCC(=C)[C@@H]2C[C@@H]1OC(C)=O` [Compound 34, (3aS,6aR,8S,9aR,9bS)-3-((E)-4-Methyl-2-nitrobenzylidene)-6,9-dimethylene-2-oxododecahydroazuleno[4,5-b]furan-8-yl acetate], the IC50 is over 100 µM.

Consider `C=C1[C@@H]2[C@H]3OC(=O)/C(=C/c4ccc(Cl)cc4)[C@@H]3CCC(=C)[C@@H]2C[C@@H]1OC(C)=O` [Compound 25, (3aS,6aR,8S,9aR,9bS)-3-((E)-4-Chlorobenzylidene)-6,9-dimethylene-2-oxododecahydroazuleno[4,5-b]furan-8-yl acetate], for which the IC50 is over 100 µM. Consider `C=C1[C@@H]2[C@H]3OC(=O)/C(=C/c4ccc(Cl)cc4[N+](=O)[O-])[C@@H]3CCC(=C)[C@@H]2C[C@@H]1OC(C)=O` [Compound 33, (3aS,6aR,8S,9aR,9bS)-3-((E)-4-Chloro-2-nitrobenzylidene)-6,9-dimethylene-2-oxododecahydroazuleno[4,5-b]furan-8-yl acetate], for which the IC50 was over 100 µM. The same measure for `C=C1[C@@H]2[C@H]3OC(=O)[C@@H](CN[C@@H](C)c4cccc5ccccc45)[C@@H]3CCC(=C)[C@@H]2C[C@@H]1O` [Compound 8, (3R,3aS,6aR,8S,9aR,9bS)-8-Hydroxy-6,9-dimethylene-3-((((S)-1-(naphthalene-1-yl)ethyl)amino)methyl)decahydroazuleno[4,5-b] furan-2(3H)-one]: 75.8 ± 3 µM; for `C=C1[C@@H]2[C@H]3OC(=O)/C(=C/c4ccc(C)cc4)[C@@H]3CCC(=C)[C@@H]2C[C@@H]1OC(C)=O` [Compound 23, (3aS,6aR,8S,9aR,9bS)-3-((E)-4-Methylbenzylidene)-6,9-dimethylene-2-oxododecahydroazuleno[4,5-b]furan-8-yl acetate]: over 100 µM. `C=C1[C@@H]2[C@H]3OC(=O)[C@@H](CN[C@@H](C)c4ccccc4)[C@@H]3CCC(=C)[C@@H]2C[C@@H]1O` [Compound 4, (3R,3aS,6aR,8S,9aR,9bS)-8-Hydroxy-6,9-dimethylene-3-((((S)-1-phenylethyl)amino)methyl)decahydroazuleno[4,5-b]furan-2(3H)-one]: the IC50 was over 100 µM. The same measure for `C=C1[C@@H]2[C@H]3OC(=O)/C(=C/c4c(OC)cccc4[N+](=O)[O-])[C@@H]3CCC(=C)[C@@H]2C[C@@H]1OC(C)=O` [Compound 26, (3aS,6aR,8S,9aR,9bS)-3-((E)-2-Methoxy-6-nitrobenzylidene)-6,9-dimethylene-2-oxododecahydroazuleno[4,5-b]furan-8-yl acetate]: over 100 µM; for `C=C1[C@@H]2[C@H]3OC(=O)/C(=C/c4ccccc4[N+](=O)[O-])[C@@H]3CCC(=C)[C@@H]2C[C@@H]1OC(C)=O` [Compound 32, (3aS,6aR,8S,9aR,9bS)-6,9-Dimethylene-3-((E)-2-nitrobenzylidene)-2-oxododecahydroazuleno[4,5-b]furan-8-yl acetate]: 36.5 µM; for `C=C1[C@@H]2[C@H]3OC(=O)/C(=C/c4ccccc4C)[C@@H]3CCC(=C)[C@@H]2C[C@@H]1OC(C)=O` [Compound 29, (3aS,6aR,8S,9aR,9bS)-3-((E)-2-Methylbenzylidene)-6,9-dimethylene-2-oxododecahydroazuleno[4,5-b]furan-8-yl acetate]: 74 µM. With `C=C1[C@@H]2[C@H]3OC(=O)[C@@H](CN4CCOCC4)[C@@H]3CCC(=C)[C@@H]2C[C@@H]1O` [Compound 18, (3R,3aS,6aR,8S,9aR,9bS)-8-Hydroxy-6,9-dimethylene-3-(morpholinomethyl)decahydroazuleno[4,5-b]furan-2(3H)-one] the figure was over 100 µM; with `C=C1[C@@H]2[C@H]3OC(=O)/C(=C/c4ccc(NC(C)=O)c(C(F)(F)F)c4)[C@@H]3CCC(=C)[C@@H]2C[C@@H]1OC(C)=O` [Compound 28, (3aS,6aR,8S,9aR,9bS)-3-((E)-4-Acetamido-3-(trifluoromethyl)benzylidene)-6,9-dimethylene-2-oxododecahydroazuleno[4,5-b] furan-8-yl acetate], over 100 µM.

In the case of `C=C1[C@@H]2[C@H]3OC(=O)[C@@H](CN4CCCC4)[C@@H]3CCC(=C)[C@@H]2C[C@@H]1O` [Compound 19, (3R,3aS,6aR,8S,9aR,9bS)-8-Hydroxy-6,9-dimethylene-3-(pyrrolidin-1-ylmethyl)decahydroazuleno[4,5-b]furan-2(3H)-one], the IC50 is over 100 µM. Take `C=C1[C@@H]2[C@H]3OC(=O)/C(=C/c4ccc(C(=O)OC)cc4)[C@@H]3CCC(=C)[C@@H]2C[C@@H]1OC(C)=O` [Compound 30, Methyl-4-((E)-((3aS,6aR,8S,9aR,9bS)-8-acetoxy-6,9-dimethylene-2-oxodecahydroazuleno[4,5-b]furan-3(2H)-ylidene)methyl)benzoate]: the IC50 is over 100 µM. On to `C=C1[C@@H]2[C@H]3OC(=O)[C@@H](CN[C@H](C)C4CCCCC4)[C@@H]3CCC(=C)[C@@H]2C[C@@H]1O` [Compound 11, (3R,3aS,6aR,8S,9aR,9bS)-3-((((R)-1-Cyclohexylethyl)amino)methyl)-8-hydroxy-6,9-dimethylenedecahydroazuleno[4,5-b]furan-2(3H)-one], for which the IC50 is over 100 µM. For the molecule `C=C1[C@@H]2[C@H]3OC(=O)/C(=C/c4cccc(C(F)(F)F)c4)[C@@H]3CCC(=C)[C@@H]2C[C@@H]1OC(C)=O` [Compound 24, (3aS,6aR,8S,9aR,9bS)-6,9-Dimethylene-2-oxo-3-((E)-3-(trifluoro-methyl)benzylidene)dodecahydroazuleno[4,5-b]furan-8-yl acetate], the IC50 was over 100 µM. Consider `C=C1[C@@H]2[C@H]3OC(=O)[C@@H](CN[C@@H](C)C4CCCCC4)[C@@H]3CCC(=C)[C@@H]2C[C@@H]1O` [Compound 12, (3R,3aS,6aR,8S,9aR,9bS)-3-((((S)-1-Cyclohexylethyl)amino)methyl)-8-hydroxy-6,9-dimethylenedecahydroazuleno[4,5-b]furan-2(3H)-one], for which the IC50 is over 100 µM. Take `C=C1[C@@H]2[C@H]3OC(=O)[C@@H](COC)[C@@H]3CCC(=C)[C@@H]2C[C@@H]1O` [Compound 22, (3R,3aS,6aR,8S,9aR,9bS)-8-Hydroxy-3-(methoxymethyl)-6,9-dimethylenedecahydroazuleno[4,5-b]furan-2(3H)-one]: the IC50 is over 100 µM.
